Data reported in patent US10448639B2, “Fungicidal pyrazoles” (FMC CORPORATION, priority 2009, dated 2019).

Experiments:
[1] = system: Puccinia recondita f. sp. tritici; assay: Test I: wheat leaf rust, preventive spray on wheat seedlings, visual disease rating; settings: for Test I rating (% disease control) / Test I disease control rating: wheat leaf rust, 100 = 100% disease control; for Test I disease control rating: sprayed the day before inoculation, 0 = no disease control relative to controls
Septoria nodorum = assay: Test F: Septoria glume blotch, preventive spray on wheat seedlings, visual disease rating; settings: for Test F rating (% disease control) / Test F disease control rating: 100 = 100% disease control; for Test F disease control rating: 0 = no disease control relative to controls
[2] = system: Erysiphe graminis f sp. tritici; assay: Test J: wheat powdery mildew, preventive spray on wheat seedlings, visual disease rating; settings: for Test J rating (% disease control) / Test J disease control rating: wheat powdery mildew, 100 = 100% disease control; for Test J disease control rating: sprayed the day before inoculation, 0 = no disease control relative to controls
Text: (§1) General protocol for preparing test suspensions for Tests A-J: the test compounds were first dissolved in acetone in an amount equal to 3% of the final volume and then suspended at the desired concentration (in ppm) in acetone and purified water (50/50 mix by volume) containing 250 ppm of the surfactant Trem® 014 (polyhydric alcohol esters). The resulting test suspensions were then used in Tests A-J. Spraying a 200 ppm test suspension to the point of run-off on the test plants was the equivalent of a rate of 500 g/ha. Unless otherwise indicated, the rating values indicate a 200 ppm test suspension was used. (An asterisk “*” next to the rating value indicates a 40 ppm test suspension was used.)
The test suspension was sprayed to the point of run-off on wheat seedlings. The following day the seedlings were inoculated with a spore dust of Erysiphe graminis f sp. tritici, (the causal agent of wheat powdery mildew) and incubated in a growth chamber at 20° C. for 8 days, after which time visual disease ratings were made.

Botrytis cinerea = assay: Test B: tomato Botrytis, preventive spray on tomato seedlings, visual disease rating; settings: for Test B rating (% disease control) / Test B disease control rating: tomato Botrytis, 100 = 100% disease control; for Test B disease control rating: 0 = no disease control relative to controls
Text: as §1
The test suspension was sprayed to the point of run-off on tomato seedlings. The following day the seedlings were inoculated with a spore suspension of Botrytis cinerea (the causal agent of tomato Botrytis) and incubated in saturated atmosphere at 20° C. for 48 h, and then moved to a growth chamber at 24° C. for 3 additional days, after which time visual disease ratings were made.

Alternaria solani = assay: Test C: tomato early blight, preventive spray on tomato seedlings, visual disease rating; settings: for Test C rating (% disease control) / Test C disease control rating: tomato early blight, 100 = 100% disease control; for Test C disease control rating: 0 = no disease control relative to controls
Septoria tritici = assay: Test G: wheat leaf blotch, preventive spray on wheat seedlings, visual disease rating; settings: for Test G rating (% disease control) / Test G disease control rating: wheat leaf blotch, 100 = 100% disease control; for Test G disease control rating: sprayed the day before inoculation, 0 = no disease control relative to controls
[3] = system: Puccinia recondita f. sp. tritici; assay: Test H: wheat leaf rust, curative spray on inoculated wheat seedlings, visual disease rating; settings: for Test H rating (% disease control) / Test H disease control rating: wheat leaf rust, 100 = 100% disease control; for Test H disease control rating: sprayed after inoculation, 0 = no disease control relative to controls
[4] = preventive spray, 0 = no control
[5] = Septoria glume blotch on wheat, preventive spray, 0 = no control
[6] = preventive, 0 = no control relative to controls
[7] = Septoria glume blotch, 0 = no control relative to controls
[8] = 0 = no control relative to controls
[9] = curative, 0 = no control relative to controls

In the case of Cc1nn(C)c(Oc2c(Cl)cc(C(F)(F)F)cc2Cl)c1-c1c(F)cc(F)cc1F [compound 30], the “Test I rating (% disease control)” value [1, 4] is reported as 79%, the “Test F rating (% disease control)” value (Septoria nodorum; [5]) is reported as 0% and the “Test J rating (% disease control)” value [2, 4] is reported as 0%. For the same molecule, the “Test B rating (% disease control)” value (Botrytis cinerea; [4]) was 7%, the “Test C rating (% disease control)” value (Alternaria solani; [4]) was 0% and the “Test G rating (% disease control)” value (Septoria tritici; [4]) was 41%. For the same molecule, the “Test H rating (% disease control)” value ([3]; curative spray, 0 = no control) was 0%.
For Cc1nn(C)c(Nc2cccc(Cl)c2Cl)c1-c1ccc(F)cc1F [compound 231], the “Test I rating (% disease control)” value [1, 6] was 86%, the “Test F rating (% disease control)” value (Septoria nodorum; [7]) was 0% and the “Test J rating (% disease control)” value [2, 8] was 100%. The “Test B rating (% disease control)” value (Botrytis cinerea; [8]) was 98%, the “Test C rating (% disease control)” value (Alternaria solani; [8]) was 34% and the “Test G rating (% disease control)” value (Septoria tritici; [8]) was 100%. The “Test H rating (% disease control)” value [3, 9] was 0%.
For Cc1nn(C)c(Oc2c(F)cc(C#N)cc2F)c1-c1cc(F)ccc1Cl [compound 276], the “Test I rating (% disease control)” value [1, 6] was 100%, the “Test F rating (% disease control)” value (Septoria nodorum; [7]) was 98% and the “Test J rating (% disease control)” value [2, 8] was 100%. The “Test B rating (% disease control)” value (Botrytis cinerea; [8]) was 100%, the “Test C rating (% disease control)” value (Alternaria solani; [8]) was 99% and the “Test G rating (% disease control)” value (Septoria tritici; [8]) was 100%. For the same molecule, the “Test H rating (% disease control)” value [3, 9] was 31%.
In the case of Cc1nn(C)c(Nc2cccc(F)c2F)c1-c1c(F)cc(C#N)cc1F [compound 145], the “Test I rating (% disease control)” value [1, 4] is reported as 100%, the “Test F rating (% disease control)” value (Septoria nodorum; [5]) is reported as 100% and the “Test J rating (% disease control)” value [2, 4] is reported as 100%. The “Test B rating (% disease control)” value (Botrytis cinerea; [4]) was 96%, the “Test C rating (% disease control)” value (Alternaria solani; [4]) was 98% and the “Test G rating (% disease control)” value (Septoria tritici; [4]) was 100%. The “Test H rating (% disease control)” value ([3]; curative spray, 0 = no control) was 88%.
For Cc1nn(CC(=O)O)c(Oc2c(F)cc([N+](=O)[O-])cc2F)c1-c1c(F)cc(F)cc1F [compound 68], the “Test I rating (% disease control)” value [1, 4] was 0%, the “Test F rating (% disease control)” value (Septoria nodorum; [5]) was 0% and the “Test J rating (% disease control)” value [2, 4] was 0%. The “Test B rating (% disease control)” value (Botrytis cinerea; [4]) was 0%, the “Test C rating (% disease control)” value (Alternaria solani; [4]) was 0% and the “Test G rating (% disease control)” value (Septoria tritici; [4]) was 0%. For the same molecule, the “Test H rating (% disease control)” value ([3]; curative spray, 0 = no control) was 6%.
For Cc1nn(C)c(Nc2ncc(Cl)cc2Cl)c1-c1ccc(F)cc1F [compound 328], the “Test I disease control rating” value [1] was 98%, the “Test F disease control rating” value (Septoria nodorum; Septoria glume blotch on wheat) was 0% and the “Test J disease control rating” value [2] was 100%. For the same molecule, the “Test B disease control rating” value (Botrytis cinerea) was 100%, the “Test C disease control rating” value (Alternaria solani) was 86% and the “Test G disease control rating” value (Septoria tritici) was 100%. The “Test H disease control rating” value [3] was 0%.
COc1cc(F)c(Nc2c(-c3ccc(Cl)cc3Cl)c(C)nn2C)c(F)c1 [compound 62] was tested, and the “Test I rating (% disease control)” value [1, 4] was 99%, the “Test F rating (% disease control)” value (Septoria nodorum; [5]) was 84% and the “Test J rating (% disease control)” value [2, 4] was 99%. For the same molecule, the “Test B rating (% disease control)” value (Botrytis cinerea; [4]) was 99%, the “Test C rating (% disease control)” value (Alternaria solani; [4]) was 98% and the “Test G rating (% disease control)” value (Septoria tritici; [4]) was 98%. For the same molecule, the “Test H rating (% disease control)” value ([3]; curative spray, 0 = no control) was 98%.
With Cc1nn(C)c(Oc2c(F)cc(C#N)cc2F)c1-c1ccccc1C(F)(F)F [compound 306] the “Test I disease control rating” value [1] was 28%, the “Test F disease control rating” value (Septoria nodorum; Septoria glume blotch on wheat) was 0% and the “Test J disease control rating” value [2] was 64%. For the same molecule, the “Test B disease control rating” value (Botrytis cinerea) was 7%, the “Test C disease control rating” value (Alternaria solani) was 0% and the “Test G disease control rating” value (Septoria tritici) was 93%. The “Test H disease control rating” value [3] was 0%.
In the case of COc1cc(OC)cc(-c2c(C)nn(C)c2Oc2ccc(Cl)cc2)c1 [compound 16], the “Test I rating (% disease control)” value [1, 4] is reported as 28%, the “Test F rating (% disease control)” value (Septoria nodorum; [5]) is reported as 0% and the “Test J rating (% disease control)” value [2, 4] is reported as 0%. The “Test B rating (% disease control)” value (Botrytis cinerea; [4]) was 60%, the “Test C rating (% disease control)” value (Alternaria solani; [4]) was 0% and the “Test G rating (% disease control)” value (Septoria tritici; [4]) was 47%. The “Test H rating (% disease control)” value ([3]; curative spray, 0 = no control) was 48%.
COc1ccc(-c2c(C)nn(C)c2Oc2ccc(C#N)cc2F)c(Cl)c1 [compound 310] was tested, and the “Test I disease control rating” value [1] was 99%, the “Test F disease control rating” value (Septoria nodorum; Septoria glume blotch on wheat) was 99% and the “Test J disease control rating” value [2] was 96%. The “Test B disease control rating” value (Botrytis cinerea) was 100%, the “Test C disease control rating” value (Alternaria solani) was 99% and the “Test G disease control rating” value (Septoria tritici) was 100%. For the same molecule, the “Test H disease control rating” value [3] was 0%.
Work on Cc1nn(C)c(Nc2c(F)cc(Cl)cc2F)c1-c1ccc(C#N)cc1Cl [Compound 336, 3-chloro-4-[5-[(4-chloro-2,6-difluorophenyl)amino]-1,3-dimethyl-1H-pyrazol-4-yl]-benzonitrile] yielded a pest or weed control at 200 µg/mL ([1]; 192 h, read-out: Test I disease control rating) of 100%, a pest or weed control at 200 µg/mL (Septoria nodorum; Parastagonospora nodorum, in Triticum aestivum, 192 h, read-out: Test F disease control rating) of 95% and a pest or weed control at 200 µg/mL ([2]; Blumeria graminis, in Triticum aestivum, 192 h, read-out: Test J disease control rating) of 99%. The pest or weed control at 200 µg/mL (Botrytis cinerea; Botrytis cinerea, in Solanum lycopersicum, 120 h, read-out: Test B disease control rating) was 100%, the pest or weed control at 200 µg/mL (Alternaria solani; Alternaria solani, in Solanum lycopersicum, 168 h, read-out: Test C disease control rating) was 97% and the pest or weed control at 200 µg/mL (Septoria tritici; Zymoseptoria tritici, in Triticum aestivum, 504 h, read-out: Test G disease control rating) was 100%. For the same molecule, the pest or weed control at 200 µg/mL ([3]; 144 h, read-out: Test H disease control rating) was 94%.
With CCOC(=O)Cn1nc(C)c(-c2c(F)cc(F)cc2F)c1Oc1c(F)cc([N+](=O)[O-])cc1F [compound 65] the “Test I rating (% disease control)” value [1, 4] was 58%, the “Test F rating (% disease control)” value (Septoria nodorum; [5]) was 0% and the “Test J rating (% disease control)” value [2, 4] was 0%. For the same molecule, the “Test B rating (% disease control)” value (Botrytis cinerea; [4]) was 0%, the “Test C rating (% disease control)” value (Alternaria solani; [4]) was 0% and the “Test G rating (% disease control)” value (Septoria tritici; [4]) was 1%. The “Test H rating (% disease control)” value ([3]; curative spray, 0 = no control) was 0%.
Cc1nn(C)c(Oc2ccc([N+](=O)[O-])c(F)c2)c1-c1c(F)cc(F)cc1F [compound 131] was tested, and the “Test I rating (% disease control)” value [1, 4] was 86%, the “Test F rating (% disease control)” value (Septoria nodorum; [5]) was 0% and the “Test J rating (% disease control)” value [2, 4] was 94%. For the same molecule, the “Test B rating (% disease control)” value (Botrytis cinerea; [4]) was 99%, the “Test C rating (% disease control)” value (Alternaria solani; [4]) was 0% and the “Test G rating (% disease control)” value (Septoria tritici; [4]) was 98%. The “Test H rating (% disease control)” value ([3]; curative spray, 0 = no control) was 0%.
For Cc1nn(C)c(Oc2c(F)cc(C#N)cc2F)c1-c1ccccc1F [compound 305], the “Test I disease control rating” value [1] was 99%, the “Test F disease control rating” value (Septoria nodorum; Septoria glume blotch on wheat) was 94% and the “Test J disease control rating” value [2] was 99%. The “Test B disease control rating” value (Botrytis cinerea) was 99%, the “Test C disease control rating” value (Alternaria solani) was 99% and the “Test G disease control rating” value (Septoria tritici) was 100%. The “Test H disease control rating” value [3] was 0%.
With COc1cc(F)c(Nc2c(-c3ccc(Cl)cc3)c(C)nn2C)c(F)c1 [compound 29] the “Test I rating (% disease control)” value [1, 4] was 46%, the “Test F rating (% disease control)” value (Septoria nodorum; [5]) was 0% and the “Test J rating (% disease control)” value [2, 4] was 0%. For the same molecule, the “Test B rating (% disease control)” value (Botrytis cinerea; [4]) was 94%, the “Test C rating (% disease control)” value (Alternaria solani; [4]) was 0% and the “Test G rating (% disease control)” value (Septoria tritici; [4]) was 98%. The “Test H rating (% disease control)” value ([3]; curative spray, 0 = no control) was 0%.
In the case of COc1ccc(Nc2c(-c3ccc(F)cc3F)c(C)nn2C)c(F)c1 [compound 228], the “Test I rating (% disease control)” value [1, 6] is reported as 80%, the “Test F rating (% disease control)” value (Septoria nodorum; [7]) is reported as 0% and the “Test J rating (% disease control)” value [2, 8] is reported as 99%. The “Test B rating (% disease control)” value (Botrytis cinerea; [8]) was 99%, the “Test C rating (% disease control)” value (Alternaria solani; [8]) was 99% and the “Test G rating (% disease control)” value (Septoria tritici; [8]) was 99%. For the same molecule, the “Test H rating (% disease control)” value [3, 9] was 0%.
